Here are results for eight compounds from PubChem BioAssay AID2060503 (Molecular Pharmacology Branch, DTP, NCI, 2025).

Several values for one entry are separate records, joined by “and”; a condition that tells them apart may be missing. Equal values may be shown once.

This experiment deals with 817829-284-R-J1-PDC complex spheroids, viability. Kind of experiment: Anticancer human tumor 817829-284-R-J1-PDC patient-derived colon adenocarcinoma cell line growth inhibition [GQUAD]. The note with it: for viability, T/C: stronger effect = lower value. Summed up:
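Viability of tumor cells grown as complex spheroids with endothelial and stromal cells, exposed to drug combinations. Top concentration at or near clinical Cmax (else 10 microM), diluted in half-log increments.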

Where [1] appears, read: curve of first compound, second compound 0.0316 µM.
Setting [2] is: curve of first compound, second compound 0.1 µM.
[3] abbreviates: curve of first compound, second compound 0.316 µM.
The mark [4] stands for this setting: curve of first compound, second compound 1 µM.
Setting [5] is: curve of first compound, second compound 3.16 µM.
Setting [6] is: curve of first compound, second compound 10 µM.
[7] abbreviates: second compound 0.0316 µM, first compound 0.0316 µM.
Setting [8] is: second compound 0.0316 µM, first compound 0.316 µM.
Setting [9] is: second compound 0.1 µM, first compound 0.0316 µM.
Setting [10] is: second compound 0.1 µM, first compound 0.316 µM.
[11] abbreviates: second compound 0.316 µM, first compound 0.0316 µM.
Where [12] appears, read: second compound 0.316 µM, first compound 0.316 µM.
[13] abbreviates: second compound 1 µM, first compound 0.0316 µM.
Where [14] appears, read: second compound 1 µM, first compound 0.316 µM.
The mark [15] stands for this setting: second compound 3.16 µM, first compound 0.0316 µM.
[16] abbreviates: second compound 3.16 µM, first compound 0.316 µM.
The mark [17] stands for this setting: second compound 10 µM, first compound 0.0316 µM.
Setting [18] is: second compound 10 µM, first compound 0.316 µM.
Setting [19] is: second compound 0.0316 µM, first compound 0.1 µM.
Setting [20] is: second compound 0.0316 µM, first compound 1 µM.
Setting [21] is: second compound 0.0316 µM, first compound 3.16 µM.
The mark [22] stands for this setting: second compound 0.0316 µM, first compound 10 µM.
The mark [23] stands for this setting: second compound 0.1 µM, first compound 0.1 µM.
[24] abbreviates: second compound 0.1 µM, first compound 1 µM.
Setting [25] is: second compound 0.1 µM, first compound 3.16 µM.
Setting [26] is: second compound 0.1 µM, first compound 10 µM.
The mark [27] stands for this setting: second compound 0.316 µM, first compound 0.1 µM.
[28] abbreviates: second compound 0.316 µM, first compound 1 µM.
The mark [29] stands for this setting: second compound 0.316 µM, first compound 3.16 µM.
Where [30] appears, read: second compound 0.316 µM, first compound 10 µM.
[31] abbreviates: second compound 1 µM, first compound 0.1 µM.
Where [32] appears, read: second compound 1 µM, first compound 1 µM.
Where [33] appears, read: second compound 1 µM, first compound 3.16 µM.
Setting [34] is: second compound 1 µM, first compound 10 µM.
Where [35] appears, read: second compound 3.16 µM, first compound 0.1 µM.
The mark [36] stands for this setting: second compound 3.16 µM, first compound 1 µM.
The mark [37] stands for this setting: second compound 3.16 µM, first compound 3.16 µM.
The mark [38] stands for this setting: second compound 3.16 µM, first compound 10 µM.
Setting [39] is: second compound 10 µM, first compound 0.1 µM.
Where [40] appears, read: second compound 10 µM, first compound 1 µM.
[41] abbreviates: second compound 10 µM, first compound 3.16 µM.
Where [42] appears, read: second compound 10 µM, first compound 10 µM.
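Also: spheroids exposed to agents for 7 days before readout.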
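For viability, T/C in this document: percent viability relative to DMSO vehicle control taken as 100%.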

One may read the IC50 as the concentration at which inhibition is half-maximal. The term viability, T/C denotes the result in the treated group divided by that in the control group, in per cent. As for `CCc1c2c(nc3ccc(O)cc13)-c1cc3c(c(=O)n1C2)COC(=O)[C@]3(O)CC` + CN(C)c1ccc(Nc2c3ccc(NC(=O)CCN4CCCC4)cc3nc3cc(NC(=O)CCN4CCCC4)ccc23)cc1, the IC50 is, setting by setting: under setting [1], 0.00119 µM; under setting [2], 0.00144 µM; under setting [3], 0.00221 µM; under setting [4], 0.00222 µM; under setting [5], 0.00278 µM; under setting [6], 0.00202 µM. For the same compound, the viability, T/C by setting is: (second compound 0.0316 µM, first compound 0.000999 µM) 50.9%; (second compound 0.0316 µM, first compound 0.00316 µM) 44.4%; (second compound 0.0316 µM, first compound 0.00999 µM) 32.1%; under setting [7], 21.4%; (second compound 0.0316 µM, first compound 0.0999 µM) 10.8%; under setting [8], 6.33%. Also, the viability, T/C is, setting by setting: (second compound 0.1 µM, first compound 0.000999 µM) 54.2%; (second compound 0.1 µM, first compound 0.00316 µM) 40.1%; (second compound 0.1 µM, first compound 0.00999 µM) 34.6%; under setting [9], 19.8%; (second compound 0.1 µM, first compound 0.0999 µM) 10.2%; under setting [10], 4.96%. Further, the viability, T/C (second compound 0.316 µM, first compound 0.000999 µM) was 53.4%; the viability, T/C (second compound 0.316 µM, first compound 0.00316 µM) was 48.3%; the viability, T/C (second compound 0.316 µM, first compound 0.00999 µM) was 36.7%; the viability, T/C under setting [11] is 19.2%; the viability, T/C (second compound 0.316 µM, first compound 0.0999 µM) was 10.4%; the viability, T/C under setting [12] was 5.53%. Moreover, the viability, T/C by setting is: (second compound 1 µM, first compound 0.000999 µM) 61.1%; (second compound 1 µM, first compound 0.00316 µM) 44.1%; (second compound 1 µM, first compound 0.00999 µM) 32.5%; under setting [13], 21.3%; (second compound 1 µM, first compound 0.0999 µM) 11.2%; under setting [14], 5.92%. In addition, the viability, T/C is, setting by setting: (second compound 3.16 µM, first compound 0.000999 µM) 66.4%; (second compound 3.16 µM, first compound 0.00316 µM) 45.1%; (second compound 3.16 µM, first compound 0.00999 µM) 35%; under setting [15], 23.7%; (second compound 3.16 µM, first compound 0.0999 µM) 12.2%; under setting [16], 6.09%. Moreover, the viability, T/C runs as follows: (second compound 10 µM, first compound 0.000999 µM) 60.8%; (second compound 10 µM, first compound 0.00316 µM) 42.9%; (second compound 10 µM, first compound 0.00999 µM) 28.7%; under setting [17], 20.6%; (second compound 10 µM, first compound 0.0999 µM) 11.4%; under setting [18], 6.76%.
In the case of `CC1COCCN1c1cc(C2(O)CC3CCC(C2)O3)c2cnn(-c3ccn[nH]3)c2n1` (stereo not drawn) + CN(C)c1ccc(Nc2c3ccc(NC(=O)CCN4CCCC4)cc3nc3cc(NC(=O)CCN4CCCC4)ccc23)cc1, the IC50 by setting is: under setting [1], less than 0.0316 µM; under setting [2], less than 0.0316 µM; under setting [3], less than 0.0316 µM; under setting [4], less than 0.0316 µM; under setting [5], less than 0.0316 µM; under setting [6], less than 0.0316 µM. Also, the viability, T/C is, setting by setting: under setting [7], 30%; under setting [19], 13.9%; under setting [8], 8.88%; under setting [20], 7.25%; under setting [21], 6.14%; under setting [22], 5.19%. For the same compound, the viability, T/C reads like this: under setting [9], 31.5%; under setting [23], 15.1%; under setting [10], 8.31%; under setting [24], 6.53%; under setting [25], 6.56%; under setting [26], 4.3%. The viability, T/C reads like this: under setting [11], 29.9%; under setting [27], 14.4%; under setting [12], 10.4%; under setting [28], 7.63%; under setting [29], 5.34%; under setting [30], 4.95%. The viability, T/C by setting is: under setting [13], 29.1%; under setting [31], 16.7%; under setting [14], 9.05%; under setting [32], 6.94%; under setting [33], 7.14%; under setting [34], 4.24%. In addition, the viability, T/C reads like this: under setting [15], 28.9%; under setting [35], 13.8%; under setting [16], 9.17%; under setting [36], 7.04%; under setting [37], 7.35%; under setting [38], 4.31%. Further, the viability, T/C was 20.2% under setting [17]; 13.6% under setting [39]; 7.79% under setting [18]; 6.03% under setting [40]; 5.19% under setting [41]; 3.21% under setting [42].
As for `CCc1c2c(nc3ccc(O)cc13)-c1cc3c(c(=O)n1C2)COC(=O)[C@]3(O)CC`, the viability, T/C by setting is: (compound 0.000999 µM) 63% and 65.3% and 63.2%; (compound 0.00316 µM) 26.9% and 40% and 26.7%; (compound 0.00999 µM) 24.7% and 33% and 30.2%; (compound 0.0316 µM) 15.5% and 21.2% and 14.7%; (compound 0.0999 µM) 9.08% and 10.2% and 7.65%; (compound 0.316 µM) 5.27% and 4.91% and 3.96%. Besides, the half-maximal inhibitory concentration (IC50) (curve of compound) is 0.00158 µM and 0.00231 µM and 0.00163 µM.
For the compound `CN(C)c1ccc(Nc2c3ccc(NC(=O)CCN4CCCC4)cc3nc3cc(NC(=O)CCN4CCCC4)ccc23)cc1`, the viability, T/C by setting is: (compound 0.0316 µM) 102% [middle of 12 runs]; (compound 0.1 µM) 99.2% [middle of 12 runs]; (compound 0.316 µM) 97.7% [middle of 12 runs]; (compound 1 µM) 102% [middle of 12 runs]; (compound 3.16 µM) 100% [middle of 12 runs]; (compound 10 µM) 93.7% [middle of 12 runs]. Further, the concentration for half-maximal inhibition (IC50) (compound alone, run of 02/26/2024) was greater than 10 µM.
As to `COc1ncnc(C2CC2)c1-c1ncc2cnn(Cc3ccc(-c4nc(C(F)(F)F)cn4C(C)C)cc3)c2n1` + CN(C)c1ccc(Nc2c3ccc(NC(=O)CCN4CCCC4)cc3nc3cc(NC(=O)CCN4CCCC4)ccc23)cc1, the half-inhibitory concentration (IC50) is, setting by setting: under setting [1], greater than 10 µM; under setting [2], greater than 10 µM; under setting [3], greater than 10 µM; under setting [4], greater than 10 µM; under setting [5], greater than 10 µM; under setting [6], 4.43 µM. Also, the viability, T/C is 102% under setting [7]; 119% under setting [19]; 106% under setting [8]; 107% under setting [20]; 108% under setting [21]; 115% under setting [22]. In addition, the viability, T/C runs as follows: under setting [9], 100%; under setting [23], 123%; under setting [10], 104%; under setting [24], 105%; under setting [25], 111%; under setting [26], 114%. The viability, T/C was 100% under setting [11]; 118% under setting [27]; 102% under setting [12]; 107% under setting [28]; 105% under setting [29]; 119% under setting [30]. The viability, T/C was 107% under setting [13]; 112% under setting [31]; 115% under setting [14]; 104% under setting [32]; 104% under setting [33]; 114% under setting [34]. For the same compound, the viability, T/C is 106% under setting [15]; 103% under setting [35]; 100% under setting [16]; 93.2% under setting [36]; 103% under setting [37]; 97.5% under setting [38]. Also, the viability, T/C under setting [17] is 114%; the viability, T/C under setting [39] was 108%; the viability, T/C under setting [18] is 91.6%; the viability, T/C under setting [40] was 95.3%; the viability, T/C under setting [41] is 53.8%; the viability, T/C under setting [42] is 31.1%.
Consider `CC(=O)O[C@H]1C(=O)[C@@]2(C)[C@H]([C@H](OC(=O)c3ccccc3)[C@]3(O)C[C@H](OC(=O)[C@H](O)[C@@H](NC(=O)c4ccccc4)c4ccccc4)C(C)=C1C3(C)C)[C@]1(OC(C)=O)CO[C@@H]1C[C@@H]2O`, for which the viability, T/C by setting is: (compound 0.0316 µM) 5.56% and 11.2% and 8.51%; (compound 0.1 µM) 5.44% and 6.01% and 3.69%; (compound 0.316 µM) 5.01% and 4.83% and 4.1%; (compound 1 µM) 4.55% and 4.35% and 3.93%; (compound 3.16 µM) 3.56% and 3.34% and 3.72%; (compound 10 µM) 5.03% and 4.92% and 4.14%. The 50% inhibitory concentration (IC50) (curve of compound) is less than 0.0316 µM.
On to `Cc1[nH]c2ccc(F)cc2c1-c1nc2c3cccnc3c3ncccc3c2[nH]1`, for which the viability, T/C is, setting by setting: (compound 0.1 µM) 103% [middle of 12 runs]; (compound 0.316 µM) 106% [middle of 12 runs]; (compound 1 µM) 99.8% [middle of 12 runs]. Besides, the concentration for half-maximal inhibition (IC50) (compound alone, run of 02/20/2024) is 3.3 µM [middle of 8 runs].
For `CCCS(=O)(=O)Nc1ccc(F)c(C(=O)c2c[nH]c3ncc(-c4ccc(Cl)cc4)cc23)c1F`, the viability, T/C was 117% and 113% and 109% (compound 0.0316 µM); 106% and 102% and 81.6% (compound 0.1 µM); 110% and 103% (2×) (compound 0.316 µM); 92.1% and 92.8% and 79.2% (compound 1 µM); 75.5% and 88.9% and 75.2% (compound 3.16 µM); 21% and 22% and 16.1% (compound 10 µM). For the same compound, the concentration for half-maximal inhibition (IC50) (curve of compound) is 5.28 µM and 6.05 µM and 4.91 µM.
